Assay [1] concerns the target K56 receptor (mouse delta opioid receptor) (Mus musculus, UniProt P32300). Briefly: biochemical.
Assay [2] has as its target T1, delta opioid receptor of NG 108-15 cells (Mus musculus, UniProt P32300).
T1 construct: NG 108-15 cells, which express the delta opioid receptor naturally; endogenous in cells; host or cells: NG 108-15 cells (membranes)
Kind of assay: biochemical. The format is binding.

As a reminder, the Ki is a measure of affinity in units of concentration, obtained from inhibition or displacement. Read a high Ki as weaker binding.

SMILES strings stand for the structures.

Chain of K56 receptor (mouse delta opioid receptor) (P32300 whole entry): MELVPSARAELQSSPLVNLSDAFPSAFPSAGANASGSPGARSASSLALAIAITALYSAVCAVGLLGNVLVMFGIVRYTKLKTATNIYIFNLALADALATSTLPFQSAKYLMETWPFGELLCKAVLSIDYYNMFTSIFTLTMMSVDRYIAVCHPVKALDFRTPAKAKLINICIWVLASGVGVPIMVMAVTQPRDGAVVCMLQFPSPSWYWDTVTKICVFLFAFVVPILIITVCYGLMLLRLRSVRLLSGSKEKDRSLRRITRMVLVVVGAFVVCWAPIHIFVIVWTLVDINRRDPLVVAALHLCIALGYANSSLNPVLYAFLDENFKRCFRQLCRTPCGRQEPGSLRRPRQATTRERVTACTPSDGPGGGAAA
T1 sequence (P32300 whole entry): as above

Consider `CCC12CCN(CC3(O)CC3)C(Cc3ccc(O)cc31)C2(C)C` (stereo not shown) [Bremazocine, bremazocine], for which the Ki is 5.62 nM in assay [1] (PKi Cos K56), 5.7 nM in assay [1] (inhibition constant Ki) and 1.78 nM in assay [2].

For `CN1CC[C@]23CCCC[C@H]2[C@H]1Cc1ccc(O)cc13` [Levorphanol, levorphanol], affinity in assay [1] (inhibition constant Ki) was put at a Ki of 20.9 nM. This lies in the double-digit nanomolar range.
